We go through nine compounds from US9107905B2 (Agency for Science, Technology and Research, priority 2006, dated 2015).

Read-outs that look alike come from different tables or passages of the source. Bounds are passed on as bounds.

One assay concerns C. albicans yeast cells. In words: hyphal induction assay (germ tube formation, yeast-hypha switch). Format: cell-based, Candida albicans. To be noted: for EC50: read-out: I50 (hyphal induction); for hypha-inducing activity: result in words.
Assay [1] relates to GST-LRR fusion protein (LRR domain of CaCdc35p). In words: circular dichroism (CD) spectroscopy of recombinant LRR domain. Format: binding, Candida albicans. An excerpt: Next, the possibility that MLA 71Q may directly bind to the LRR domain of CaCdc35p was explored. The wild-type LRR domain and that of Irr9mu were expressed in E. coli as glutathione-S-transferase (GST) fusions and purified to high homogeneity. Then circular dichroism (CD) spectroscopy was used to detect possible direct interaction between the LRR domain and MLADIQ. CD is a reliable tool in detecting conformational changes in a protein as a result of ligand binding (Woody, R. W. (1995). Methods Enzymol. 246, 34-71).

The target of assay [2] is GST-LRR fusion (LRR domain of CaCdc35p) (Candida albicans, UniProt A0A1D8PR83). In words: tryptophan fluorescence quenching of recombinant LRR domain. Format: binding. The conditions noted are these: for Kd: nonlinear regression of fluorescence quenching, read-out: equilibrium dissociation constant (Kd); for fluorescence quenching: result in words. From the text: Since specific binding of a molecule to a tryptophan-containing protein may cause concentration-dependent quenching; of tryptophan fluorescence, fluorescence spectroscopy was used to measure the intensity of tryptophan fluorescence of the recombinant LRR domains in the presence of different concentrations of MLADiQ. […] The fluorescence spectrum of GST was not affected by any of the compounds used.

[3] abbreviates: synthetic compounds and reference inducer.

Sequence of GST-LRR fusion (LRR domain of CaCdc35p) (A0A1D8PR83 entry or part of it): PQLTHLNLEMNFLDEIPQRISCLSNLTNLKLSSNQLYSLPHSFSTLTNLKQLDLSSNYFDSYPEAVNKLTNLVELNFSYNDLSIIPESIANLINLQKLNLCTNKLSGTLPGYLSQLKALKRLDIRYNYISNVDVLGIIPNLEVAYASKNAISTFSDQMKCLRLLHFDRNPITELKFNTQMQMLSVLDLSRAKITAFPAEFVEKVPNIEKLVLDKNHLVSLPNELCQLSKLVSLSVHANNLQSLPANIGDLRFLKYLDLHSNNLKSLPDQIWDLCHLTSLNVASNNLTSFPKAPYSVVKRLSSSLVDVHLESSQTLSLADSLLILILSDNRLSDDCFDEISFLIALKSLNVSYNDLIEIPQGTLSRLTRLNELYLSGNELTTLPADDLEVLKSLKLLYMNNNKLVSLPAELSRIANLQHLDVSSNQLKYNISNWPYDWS

As to `C[C@H](NC(=O)[C@@H](C)O[C@H]1[C@H](O)[C@@H](CO)OC(O)[C@@H]1N)C(=O)O` (stereo partly drawn), in the assay on C. albicans yeast cells (synthetic compounds), the EC50 is ~200 µM. Further, the “shift of the ellipticity values of the CD spectra” value (“shift” for short) in assay [1] is given as “weaker but consistent spectrum shift”. Also, in assay [2], the Kd came out at 1.67 ± 0.13 µM and the fluorescence quenching result is “lower levels of fluorescence quenching”.

Regarding `CC(=O)N[C@H]1C(O)O[C@H](CO)[C@@H](O)[C@@H]1O[C@H](C)C(=O)O` (stereo partly drawn) [N-acetylmuramic acid, reference compound], in the assay on C. albicans yeast cells, the hypha-inducing activity result was “Neither muramic nor N-acetylmuramic acid was active”.

Turning to `CC(=O)N[C@H]1C(O)O[C@H](CO)[C@@H](O)[C@@H]1O` (stereo partly drawn) [NAG, N-Acetylglucosamine, reference compound], the EC50 with C. albicans yeast cells (setting [3]) was ~3000 µM. Besides, the “shift” value in assay [1] is recorded as “weaker but consistent spectrum shift”. Also, in assay [2], the Kd worked out at 6.8 ± 0.32 µM and the fluorescence quenching result is given as “lower levels of fluorescence quenching”.

Consider `CC(=O)NC1C(O)OC(CO)C(O)C1OC(C)C(=O)NC(C)C(=O)O` [NMLA, N-acetylmurmyl-L-alanine], for which the EC50 in the assay on C. albicans yeast cells (setting [3]) was ~8000 µM.

Consider `CC(=O)NC1C(O)OC(CO)C(O)C1OC(C)C(=O)NC(C)C(=O)NC(CCC(=O)O)C(N)=O` [NMLADiQ, N-acetylmuramyl-L-alanyl-D isoglutamine], for which the “concentration above which the activity started to drop significantly” value with C. albicans yeast cells was “above 20 mM”. The “highest germ tube formation induced” value in the assay with C. albicans yeast cells (at increased concentrations) was ≤ 60%. Besides, in the assay with C. albicans yeast cells (from I50), the “times less active than MLADiQ” value came to 600 times. Further, the EC50 in the assay with C. albicans yeast cells (setting [3]) was ~6000 µM. Besides, in assay [1], the “shift” value was “weaker but consistent spectrum shift”. In assay [2], the Kd worked out at 5.26 ± 0.47 µM and the fluorescence quenching entry is on record as “lower levels of fluorescence quenching”.

Turning to `O=C(CO)[C@@H](O)[C@H](O)[C@H](O)CO` [fructose, reference compound], in the assay on C. albicans yeast cells, the hypha-inducing activity entry is recorded as “none of these compounds was found to have appreciable hypha-inducing activity”.

For `OCC(O)CO` [glycerol, reference compound], in the assay with C. albicans yeast cells, the hypha-inducing activity result is “none of these compounds was found to have appreciable hypha-inducing activity”.

As for `CC(O)C(=O)O` (stereo not drawn) [lactic acid, reference compound], the hypha-inducing activity entry in the assay with C. albicans yeast cells is “none of these compounds was found to have appreciable hypha-inducing activity”.

For the compound `C[C@@H](O[C@H]1[C@H](O)[C@@H](CO)OC(O)[C@@H]1N)C(=O)O` (stereo partly drawn) [muramic, muramic acid, reference compound], the hypha-inducing activity result in the assay with C. albicans yeast cells is recorded as “Neither muramic nor N-acetylmuramic acid was active”.
